Data set [1] deals with T1, human calcitonin receptor (Homo sapiens, UniProt P30988).
T1 construct: expressed in transfected cells; host or cells: BHK570
T1 sequence (P30988 25-474): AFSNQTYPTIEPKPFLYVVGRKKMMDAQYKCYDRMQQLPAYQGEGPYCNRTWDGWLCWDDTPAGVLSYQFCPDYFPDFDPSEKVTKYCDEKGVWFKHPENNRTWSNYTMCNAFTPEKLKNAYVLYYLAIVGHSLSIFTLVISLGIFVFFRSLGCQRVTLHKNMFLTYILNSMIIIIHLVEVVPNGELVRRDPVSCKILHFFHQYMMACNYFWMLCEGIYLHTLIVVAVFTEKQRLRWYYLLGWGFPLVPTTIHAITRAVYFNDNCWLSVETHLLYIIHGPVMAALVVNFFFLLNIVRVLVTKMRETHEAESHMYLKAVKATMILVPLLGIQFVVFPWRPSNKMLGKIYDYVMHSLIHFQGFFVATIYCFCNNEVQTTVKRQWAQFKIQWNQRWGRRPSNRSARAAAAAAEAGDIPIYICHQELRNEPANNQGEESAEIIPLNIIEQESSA
The experiment in a line: Assay (II)a functional CRE-luciferase assay, human calcitonin receptor. Format: cell-based.

The nature of data set [2]: Assay (IV) determination of solubility. Format: physicochemical. The method in brief:
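Solubility was profiled across pH 3.0–8.0 after 18 hours at room temperature: a ~500 nmol/ml aqueous polypeptide solution was diluted 1:1 into 100 mM glycylglycine or bistrispropane buffers. After centrifugation, HPLC gave the dissolved concentration.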

Data set [3] can be described thus: Assay (III) ThT fibrillation assay for physical stability. Format: physicochemical. In short, it runs like this:
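Freshly prepared formulations, pH-adjusted, with 1 μM ThT; four or eight replicates incubated at 37 °C under 960 rpm orbital shaking. Fluorescence (ex 444/em 485 nm) read every 20 min; […]. Peptide concentration measured by RP-HPLC before and after the run.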

Data set [4] has as its target T2, human amylin receptor (amylin 3(a) receptor: human calcitonin receptor + RAMP-3) (Homo sapiens, UniProt O60896+P30988).
T2 construct: expressed in transfected cells; host or cells: BHK570
T2 sequence (P30988 25-474): T1 sequence (P30988 25-474)
T2 sequence (O60896 24-148 partner): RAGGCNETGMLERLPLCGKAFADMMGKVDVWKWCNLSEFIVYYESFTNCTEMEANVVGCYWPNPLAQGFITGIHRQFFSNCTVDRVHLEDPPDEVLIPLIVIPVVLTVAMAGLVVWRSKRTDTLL
In words: Assay (II)a functional CRE-luciferase assay, human amylin receptor. Format: cell-based. The following applies: Table 2; BHK amylin 3(a)-receptor/CRE-luc cells.

[5] abbreviates: Table 7, human calcitonin (CTa) receptor.
Where [6] appears, read: bistrispropane buffer, pH 6, pH 6.0, read-out: Solubility pH 6.0.
The mark [7] stands for this setting: bistrispropane buffer, pH 7.5, pH 7.5, read-out: Solubility pH 7.5.
Setting [8] is: bistrispropane buffer, pH 8, pH 8.0, read-out: Solubility pH 8.0.
[9] abbreviates: glycylglycine buffer, pH 3, pH 3.0, read-out: Solubility pH 3.0.
[10] abbreviates: glycylglycine buffer, pH 4, pH 4.0, 18 hours at room temperature, Table 2, read-out: Solubility pH 4.0.
The mark [11] stands for this setting: glycylglycine buffer, pH 4, pH 4.0, read-out: Solubility pH 4.0.
[12] abbreviates: glycylglycine buffer, pH 5, pH 5.0, read-out: Solubility pH 5.0.
The mark [13] stands for this setting: bistrispropane buffer, pH 6.5, pH 6.5, read-out: Solubility pH 6.5.
Setting [14] is: bistrispropane buffer, pH 7, pH 7.0, 18 hours at room temperature, Table 3, read-out: Solubility pH 7.0.
The mark [15] stands for this setting: bistrispropane buffer, pH 7, pH 7.0, read-out: Solubility pH 7.0.

From patent US8722849B2, “Polypeptides” (Novo Nordisk A/S, priority 2011, dated 2014) come the findings set out here.

Converted amounts (≈) assume the structure as drawn. Read-outs that look alike come from different tables or passages of the source. Starred links: 1 amine or outer side, 2 acyl side, 3 side chain; linkers in the order of their positions; H or OH if unused. Positions of bridges follow the written chain, without caps; N, C: chain ends. Residues, ends and D or L forms follow the SMILES beside them. *: point of attachment. C20 diacid = O=C(O)CCCCCCCCCCCCCCCCCCC(=O)*; γGlu = O=C(O)[C@H](CCC(=O)[*:2])N[*:1]

For `CC[C@H](C)[C@H](NC(=O)[C@@H]1CCCN1C(=O)CNC(=O)[C@H](Cc1ccccc1)NC(=O)[C@H](CC(N)=O)NC(=O)[C@H](CC(N)=O)NC(=O)[C@H](CO)NC(=O)[C@H](CO)NC(=O)[C@H](Cc1c[nH]cn1)NC(=O)[C@H](Cc1c[nH]cn1)NC(=O)[C@H](CC(C)C)NC(=O)[C@H](Cc1ccccc1)NC(=O)[C@H](CCC(=O)O)NC(=O)[C@H](C)NC(=O)[C@H](CC(C)C)NC(=O)[C@H](CCCNC(=N)N)NC(=O)[C@H](CCC(N)=O)NC(=O)[C@@H](NC(=O)[C@H](C)NC(=O)[C@@H]1CSSC[C@H](NC(=O)[C@H](Cc2c[nH]cn2)NC(=O)[C@H](Cc2c[nH]cn2)NC(=O)[C@H](Cc2c[nH]cn2)NC(=O)CC[C@H](NC(=O)CCCCCCCCCCCCCCCCCCC(=O)O)C(=O)O)C(=O)N[C@@H](Cc2c[nH]cn2)C(=O)N[C@@H]([C@@H](C)O)C(=O)N[C@@H](C)C(=O)N[C@@H]([C@@H](C)O)C(=O)N1)[C@@H](C)O)C(=O)N[C@@H](CC(C)C)C(=O)N1CCC[C@H]1C(=O)N1CCC[C@H]1C(=O)N[C@H](C(=O)N[C@@H](CC(N)=O)C(=O)N[C@H](C(=O)NCC(=O)N[C@@H](CO)C(=O)N[C@@H](CC(N)=O)C(=O)N[C@H](C(=O)N[C@@H](Cc1ccc(O)cc1)C(N)=O)[C@@H](C)O)C(C)C)[C@@H](C)O` [Example 35, N-alpha-[(S)-4-Carboxy-4-(19-carboxynonadecanoylamino)butyryl]-His-His-[His1,His3,Glu14,His17]-pramlintide] ({C20 diacid-γGlu}-HHHCHTATCATQRLAEFLHHSSNNFGPILPPTNVGSNTY-NH2; disulfide 4-9), the figures for the EC50 in data set [1] (setting [5]) and in data set [4] were 0.801 nM and 0.286 nM, respectively. Besides, the solubility (as a rule, how much of the substance goes into solution per volume) at 18 h is 17 µM (≈ 81 µg/mL) in data set [2] (setting [6]); 9 µM (≈ 42.9 µg/mL) in data set [2] (setting [7]); 66 µM (≈ 314 µg/mL) in data set [2] (setting [8]); > 200 µM in data set [2] (setting [9]); > 200 µM in data set [2] (setting [10]); > 200 µM in data set [2] (setting [11]). For the same compound, in data set [2] (setting [12]), the solubility at 18 h worked out at 194 µM (≈ 924 µg/mL). Further, the “ThT pH 4.0 lag time (h)” value in data set [3] (ThT fibrillation assay) was 1.3 h.
On to `CC[C@H](C)[C@H](NC(=O)[C@@H]1CCCN1C(=O)CNC(=O)[C@H](Cc1ccccc1)NC(=O)[C@H](CC(N)=O)NC(=O)[C@H](CCC(N)=O)NC(=O)[C@H](CO)NC(=O)[C@H](CO)NC(=O)[C@H](Cc1c[nH]cn1)NC(=O)[C@H](CCCNC(=N)N)NC(=O)[C@H](CC(C)C)NC(=O)[C@H](Cc1ccccc1)NC(=O)[C@H](CCC(=O)O)NC(=O)[C@H](C)NC(=O)[C@H](CC(C)C)NC(=O)[C@H](CCCNC(=N)N)NC(=O)[C@H](CCC(N)=O)NC(=O)[C@@H](NC(=O)[C@H](C)NC(=O)[C@@H]1CSSC[C@H](NC(=O)[C@H](CCC(=O)O)NC(=O)[C@H](CCCNC(=N)N)NC(=O)[C@H](CCC(=O)O)NC(=O)CC[C@H](NC(=O)CCCCCCCCCCCCCCCCCCC(=O)O)C(=O)O)C(=O)N[C@@H](CC(N)=O)C(=O)N[C@@H]([C@@H](C)O)C(=O)N[C@@H](C)C(=O)N[C@@H]([C@@H](C)O)C(=O)N1)[C@@H](C)O)C(=O)N[C@@H](CC(C)C)C(=O)N1CCC[C@H]1C(=O)N1CCC[C@H]1C(=O)N[C@H](C(=O)N[C@@H](CCC(N)=O)C(=O)N[C@H](C(=O)NCC(=O)N[C@@H](CO)C(=O)N[C@@H](CCC(N)=O)C(=O)N[C@H](C(=O)N1CCC[C@H]1C(N)=O)[C@@H](C)O)C(C)C)[C@@H](C)O` [Example 163, N-alpha-[(S)-4-Carboxy-4-(19-carboxynonadecanoylamino)butyryl]-Glu-Arg-[Glu1,Glu14,Arg17,Gln21,Gln31,Gln35,Pro37]-pramlintide] ({C20 diacid-γGlu}-ERECNTATCATQRLAEFLRHSSQNFGPILPPTQVGSQTP-NH2; disulfide 4-9), for which the EC50 (as a rule, the concentration that produces a half-maximal response) in data set [1] (Table 11, read-out: CTa receptor human EC50) was 3.71 nM; in data set [4] it was 1.06 nM. Also, the solubility at 18 h was > 200 µM in data set [2] (setting [6]); > 200 µM in data set [2] (setting [13]); > 200 µM in data set [2] (setting [14]); > 200 µM in data set [2] (bistrispropane buffer, pH 7, pH 7.0, Table 8, read-out: Solubility pH 7.0); > 200 µM in data set [2] (bistrispropane buffer, pH 7, pH 7.0, Table 9, read-out: Solubility pH 7.0); > 200 µM in data set [2] (setting [15]). The solubility at 18 h in data set [2] (bistrispropane buffer, pH 7.5, pH 7.5, Table 9, read-out: Solubility pH 7.5) is > 200 µM; in data set [2] (setting [7]), > 200 µM; in data set [2] (setting [8]), > 200 µM; in data set [2] (setting [9]), > 200 µM; in data set [2] (setting [10]), > 200 µM; in data set [2] (setting [11]), > 200 µM. Further, the solubility at 18 h in data set [2] (setting [12]) was > 200 µM. In addition, the “ThT pH 4.0 lag time” value in data set [3] (Table 8), in data set [3] (Table 9) and in data set [3] (ThT fibrillation assay) was >45 h each time. In addition, the “ThT pH 4.0 lag time (h)” value in data set [3] (ThT fibrillation assay) is >45 h.
On to `CC[C@H](C)[C@H](NC(=O)[C@@H]1CCCN1C(=O)CNC(=O)[C@H](Cc1ccccc1)NC(=O)[C@H](CC(N)=O)NC(=O)[C@H](CC(N)=O)NC(=O)[C@H](CO)NC(=O)[C@H](CO)NC(=O)[C@H](Cc1c[nH]cn1)NC(=O)[C@H](Cc1c[nH]cn1)NC(=O)[C@H](CC(C)C)NC(=O)[C@H](Cc1ccccc1)NC(=O)[C@H](CCC(=O)O)NC(=O)[C@H](C)NC(=O)[C@H](CC(C)C)NC(=O)[C@H](CCCNC(=N)N)NC(=O)[C@H](CCC(N)=O)NC(=O)[C@@H](NC(=O)[C@H](C)NC(=O)[C@@H]1CSSC[C@H](NC(=O)CC[C@H](NC(=O)CCCCCCCCCCCCCCCCCCC(=O)O)C(=O)O)C(=O)N[C@@H](CC(N)=O)C(=O)N[C@@H]([C@@H](C)O)C(=O)N[C@@H](C)C(=O)N[C@@H]([C@@H](C)O)C(=O)N1)[C@@H](C)O)C(=O)N[C@@H](CC(C)C)C(=O)N1CCC[C@H]1C(=O)N1CCC[C@H]1C(=O)N[C@H](C(=O)N[C@@H](CC(N)=O)C(=O)N[C@H](C(=O)NCC(=O)N[C@@H](CO)C(=O)N[C@@H](CC(N)=O)C(=O)N[C@H](C(=O)N1CCC[C@H]1C(N)=O)[C@@H](C)O)C(C)C)[C@@H](C)O` [Example 104, N-alpha-[(S)-4-Carboxy-4-(19-carboxynonadecanoylamino)butyryl]-[des1,Glu14,His17,Pro37]-pramlintide] ({C20 diacid-γGlu}-CNTATCATQRLAEFLHHSSNNFGPILPPTNVGSNTP-NH2; disulfide 1-6 (inferred)), for which the EC50 is 0.107 nM in data set [1] (setting [5]) and 0.0795 nM in data set [4]. Further, the solubility at 18 h in data set [2] (setting [6]), in data set [2] (setting [13]), in data set [2] (setting [14]), in data set [2] (setting [15]), in data set [2] (setting [7]) and in data set [2] (setting [8]) was > 200 µM throughout. The solubility at 18 h in data set [2] (setting [9]), in data set [2] (setting [10]), in data set [2] (setting [11]) and in data set [2] (setting [12]) was > 200 µM in each case. For the same compound, the “ThT pH 4.0 lag time (h)” value in data set [3] (ThT fibrillation assay) was found to be 23 h.
